Test results from publication PMC3961306, “Comparison of the Cancer Gene Targeting and Biochemical Selectivities of All Targeted Kinase Inhibitors Approved for Clinical Use” (PLoS ONE, 2014).
Where two headings read alike, the source gives them in different places.

Legend:
Experiment in all cases: Kinase profiling in a biochemical assay panel (mobility shift assays and ELISA), %-inhibition at 1 μM; selectivity entropy
[1] = target: panel of more than 300 wild-type and mutant kinases (313 kinase panel) (Homo sapiens, UniProt Q16512)
[2] = target: T1, panel of more than 300 wild-type and mutant kinases (313 kinase panel) (Homo sapiens, UniProt P42680)
T1 sequence (P42680 1-631): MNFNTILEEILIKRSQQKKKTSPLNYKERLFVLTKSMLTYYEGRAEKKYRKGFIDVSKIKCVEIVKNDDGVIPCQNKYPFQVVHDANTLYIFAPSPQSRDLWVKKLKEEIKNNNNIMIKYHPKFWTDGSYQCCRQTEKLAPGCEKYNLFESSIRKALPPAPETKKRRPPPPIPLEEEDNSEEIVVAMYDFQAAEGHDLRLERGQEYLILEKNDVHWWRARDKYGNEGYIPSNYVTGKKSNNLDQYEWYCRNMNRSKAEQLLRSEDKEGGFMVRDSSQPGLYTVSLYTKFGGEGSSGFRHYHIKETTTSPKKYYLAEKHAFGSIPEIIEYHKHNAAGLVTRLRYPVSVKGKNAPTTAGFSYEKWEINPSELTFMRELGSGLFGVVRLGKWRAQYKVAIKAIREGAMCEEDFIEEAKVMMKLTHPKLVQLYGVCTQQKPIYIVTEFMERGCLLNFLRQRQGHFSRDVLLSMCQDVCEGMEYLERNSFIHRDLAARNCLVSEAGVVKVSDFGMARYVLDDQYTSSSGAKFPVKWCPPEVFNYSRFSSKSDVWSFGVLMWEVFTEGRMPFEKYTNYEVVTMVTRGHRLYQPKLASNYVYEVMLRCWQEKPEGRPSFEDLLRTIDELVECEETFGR

[3] = target: panel of more than 300 wild-type and mutant kinases (313 kinase panel) (Homo sapiens, UniProt O75676)
[4] = target: T2, panel of more than 300 wild-type and mutant kinases (313 kinase panel) (Homo sapiens, UniProt Q9Y2U5)
T2 sequence (Q9Y2U5 1-619): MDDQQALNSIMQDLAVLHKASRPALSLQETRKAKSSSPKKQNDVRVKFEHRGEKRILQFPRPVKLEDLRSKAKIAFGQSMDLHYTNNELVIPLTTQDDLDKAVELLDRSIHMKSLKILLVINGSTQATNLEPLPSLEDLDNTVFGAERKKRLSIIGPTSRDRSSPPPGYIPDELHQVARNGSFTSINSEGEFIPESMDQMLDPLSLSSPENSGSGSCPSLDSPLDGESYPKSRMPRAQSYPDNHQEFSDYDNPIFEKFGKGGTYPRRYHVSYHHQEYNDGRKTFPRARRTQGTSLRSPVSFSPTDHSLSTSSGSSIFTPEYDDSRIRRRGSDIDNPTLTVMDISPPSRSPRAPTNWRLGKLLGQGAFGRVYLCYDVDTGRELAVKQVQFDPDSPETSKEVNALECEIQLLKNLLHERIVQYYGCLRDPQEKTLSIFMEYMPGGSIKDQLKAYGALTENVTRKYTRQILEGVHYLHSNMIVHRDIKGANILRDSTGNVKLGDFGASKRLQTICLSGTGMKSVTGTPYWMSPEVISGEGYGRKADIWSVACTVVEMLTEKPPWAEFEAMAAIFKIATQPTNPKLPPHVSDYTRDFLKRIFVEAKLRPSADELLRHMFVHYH

[5] = target: panel of more than 300 wild-type and mutant kinases (313 kinase panel) (Homo sapiens, UniProt P23443)
[6] = target: panel of more than 300 wild-type and mutant kinases (313 kinase panel) (Homo sapiens, UniProt P57059)
[7] = target: panel of more than 300 wild-type and mutant kinases (313 kinase panel) (Homo sapiens, UniProt Q86Z02)
[8] = target: panel of more than 300 wild-type and mutant kinases (313 kinase panel) (Homo sapiens, UniProt P28482)
[9] = test system: panel of more than 300 wild-type and mutant kinases (313 kinase panel)
[10] = target: panel of more than 300 wild-type and mutant kinases (313 kinase panel) (Homo sapiens, UniProt P53355)
[11] = kinase MAP3K2, compound at 1 μM
[12] = kinase EGFR(d746-750), compound at 1 μM
[13] = kinase EGFR(d746-750/T790M), compound at 1 μM
[14] = kinase EML4-ALK, compound at 1 μM

| Structure (SMILES) | %-inhibition of PKN1 ([1]; kinase PKN1, 1 μM) | %-inhibition of TEC ([2]; kinase TEC, 1 μM) | %-inhibition of MSK2 ([3]; kinase MSK2, 1 μM) | %-inhibition of MAP3K2 [4, 11] | %-inhibition of p70S6K ([5]; kinase p70S6K, 1 μM) | %-inhibition of SIK ([6]; kinase SIK, 1 μM) | %-inhibition of HIPK1 ([7]; kinase HIPK1, compound at 1 μM) | %-inhibition of Erk2 ([8]; kinase Erk2, compound at 1 μM) | %-inhibition of DAPK1 ([10]; kinase DAPK1, compound at 1 μM) | %-inhibition of NPM1-ALK [9] | %-inhibition of TAK1-TAB1 [9] | %-inhibition of LYNb ([9]; 1 µM) | %-inhibition of PKCβ2 ([9]; 1 µM) | %-inhibition of SRM ([9]; 1 µM) | also measured |
| --- | --- | --- | --- | --- | --- | --- | --- | --- | --- | --- | --- | --- | --- | --- | --- |
| Cc1ccc(C(=O)Nc2ccc(CN3CCN(C)CC3)c(C(F)(F)F)c2)cc1C#Cc1cnc2cccnn12 [ponatinib] | 1.61% | 79% | 27% | 79% | 101% | 96% | 22% |  |  |  |  |  |  |  |  |
| CC(C)(C)c1nc(-c2cccc(NS(=O)(=O)c3c(F)cccc3F)c2F)c(-c2ccnc(N)n2)s1 [dabrafenib] | -2.84% | 38% |  | 71% |  | 100% | 70% | -8% | -0.54% |  |  |  |  |  | %-inhibition of EGFR(d746-750) [9, 12]: -1.84%; %-inhibition of EGFR(d746-750/T790M) [9, 13]: 6.41%; %-inhibition of EML4-ALK [9, 14]: -1.11%; %-inhibition of LYNb ([9]; kinase LYNb, compound at 1 μM): 86%; %-inhibition of NPM1-ALK ([9]; kinase NPM1-ALK, 1 μM): -3%; %-inhibition of PKCβ2 ([9]; kinase PKCβ2, 1 μM): -3%; %-inhibition of SRM ([9]; kinase SRM, 1 μM): 100%; %-inhibition of TAK1-TAB1 ([9]; kinase TAK1-TAB1, 1 μM): 14% |
| COc1cc(Nc2c(C#N)cnc3cc(OCCCN4CCN(C)CC4)c(OC)cc23)c(Cl)cc1Cl [bosutinib] | 32% | 58% | -2.27% |  | 43% | 100% | 3.32% |  |  | 66% | 83% | 94% | 22% | 58% | %-inhibition of MAP3K2 ([4]; 1 µM): 93%; %-inhibition of EGFR(d746-750) ([9]; 1 µM): 100%; %-inhibition of EGFR(d746-750/T790M) ([9]; 1 µM): 92%; %-inhibition of EML4-ALK ([9]; 1 µM): 54% |
| Cc1nc(Nc2ncc(C(=O)Nc3c(C)cccc3Cl)s2)cc(N2CCN(CCO)CC2)n1 [dasatinib] |  |  |  |  | 11% |  | 2.64% |  |  |  |  |  |  |  |  |
| CO[C@H]1C[C@@H]2CC[C@@H](C)[C@@](O)(O2)C(=O)C(=O)N2CCCC[C@H]2C(=O)O[C@H]([C@H](C)C[C@@H]2CC[C@@H](OC(=O)C(C)(CO)CO)[C@H](OC)C2)CC(=O)[C@H](C)/C=C(\C)[C@@H](O)[C@@H](OC)C(=O)[C@H](C)C[C@H](C)/C=C/C=C/C=C/1C [temsirolimus] | 0.71% | -9% | -5% | 5.58% | -13% | -5.28% | -0.101% | -6% | -8% |  |  |  |  |  | %-inhibition of EGFR(d746-750) [9, 12]: -3%; %-inhibition of EGFR(d746-750/T790M) [9, 13]: -0.33%; %-inhibition of EML4-ALK [9, 14]: -7%; %-inhibition of LYNb ([9]; kinase LYNb, compound at 1 μM): -10%; %-inhibition of NPM1-ALK ([9]; kinase NPM1-ALK, 1 μM): -7.57%; %-inhibition of PKCβ2 ([9]; kinase PKCβ2, 1 μM): -1.6%; %-inhibition of SRM ([9]; kinase SRM, 1 μM): -4%; %-inhibition of TAK1-TAB1 ([9]; kinase TAK1-TAB1, 1 μM): -3.77% |
| C#Cc1cccc(Nc2ncnc3cc(OCCOC)c(OCCOC)cc23)c1 [erlotinib] |  |  |  |  |  |  |  |  |  | 19% | 5% | 60% | 6% | 11% | %-inhibition of PKN1 ([1]; 1 µM): 2.76%; %-inhibition of TEC ([2]; 1 µM): 20%; %-inhibition of Erk2 ([8]; 1 µM): -2%; %-inhibition of MSK2 ([3]; 1 µM): 5%; %-inhibition of MAP3K2 ([4]; 1 µM): 14%; %-inhibition of p70S6K ([5]; 1 µM): 10%; %-inhibition of EML4-ALK ([9]; 1 µM): 26%; %-inhibition of SIK ([6]; 1 µM): 8%; %-inhibition of DAPK1 ([10]; 1 µM): 1.08%; %-inhibition of HIPK1 ([7]; 1 µM): 12% |
| COc1cc2c(Nc3ccc(Br)cc3F)ncnc2cc1OCC1CCN(C)CC1 [vandetanib] | 0.946% | 15% | -3.21% | 14% |  | 70% | -8% | -4% | -9% | 28% | 6% | 91% | -2.13% | 39% | %-inhibition of EGFR(d746-750) ([9]; 1 µM): 100%; %-inhibition of EGFR(d746-750/T790M) ([9]; 1 µM): 85%; %-inhibition of EML4-ALK ([9]; 1 µM): 20% |
| CS(=O)(=O)CCNCc1ccc(-c2ccc3ncnc(Nc4ccc(OCc5cccc(F)c5)c(Cl)c4)c3c2)o1 [lapatinib] | 0% | 0% | 2% | 5.6% | 8% | -7% |  | -7% |  | -3.28% |  | 7% | -6% | 13% | %-inhibition of DAPK1 ([10]; 1 µM): -6% |
| CCN(CC)CCNC(=O)c1c(C)[nH]c(/C=C2\C(=O)Nc3ccc(F)cc32)c1C [sunitinib] |  |  |  |  | 88% |  | 79% |  |  |  |  |  |  |  |  |
| O=S(=O)(c1cccc2cnccc12)N1CCCNCC1 [fasudil] | 55% | -7% | 15% | -15% | 38% | -0.948% | -3.31% | -7% | 10% |  |  |  |  |  |  |
| C[C@@H](Oc1cc(-c2cnn(C3CCNCC3)c2)cnc1N)c1c(Cl)ccc(F)c1Cl [crizotinib] | 23% | 1.53% | -1.8% |  | 40% | 26% | -7% | -4.58% | -4% |  | 5% | 34% | -1.6% | 1.51% | %-inhibition of EGFR(d746-750) ([9]; 1 µM): 2%; %-inhibition of EGFR(d746-750/T790M) ([9]; 1 µM): 8% |
